# From US20090270398A1, “Compounds, Compositions and Methods Comprising Pyridazine Derivatives” (Institute for OneWorld Health, priority 2008, published 2009)
# Target: T1, CFTR (Homo sapiens, UniProt P13569)
# T1 construct: results in the phosphorylation and opening of CFTR anion channels
# Experiment: T84 assay (FLIPR membrane potential, forskolin/IBMX-stimulated CFTR channel activity)
# Assay type: cell-based
# Conditions: average of at least 2 runs unless annotated n = 1
# Experimental: (§1) For example, Human colonic T84 cells can be acquired from the European Collection of Cell Cultures (ECACC) and grown in standard culture conditions as described by the supplier. On the day before assay 25,000 T84 cells per well are plated into standard black walled, clear bottom 384-well assay plates in standard growth medium consisting of DMEM:F12 with 10% FBS and incubated overnight. On the day of the assay the plates are washed using a standard assay buffer (HBSS with 10 mM Hepes) and incubated for 15 minutes in serum free cell culture medium before the addition of a commercially available membrane potential sensitive fluorescent dye (FLIPR Red membrane potential dye, Molecular Devices Corporation). T84 cells are incubated with the FLIPR Red membrane potential dye for 45 minutes in the presence and absence of test compound before being transferred to a commercially available fluorescence imaging plate reader (FLIPR384, Molecular Devices Corporation). Fluorescence levels are monitored continuously every second for 150 seconds; after an initial 10 second baseline, CFTR channel activity is stimulated through the addition of 10 μM forskolin in the presence of 100 μM of the phosphodiesterase inhibitor iso-butyl-methylxanthine (IBMX). Addition of the forskolin leads to the activation of intracellular adenylyl cylase 1, elevating cAMP levels and results in the phosphorylation and opening of CFTR anion channels. CFTR channel opening causes chloride ion efflux and subsequent depolarization of the cells, which is measured by an increase in fluorescence. CFTR inhibitor compounds prevent cell depolarization and the associated increase in fluorescence.
# as §1, with “Human colonic” for “For example, Human colonic”, “T84 cells are acquired from” for “T84 cells can be acquired from”, “(ECACC) and are grown in” for “(ECACC) and grown in”
# Unless otherwise indicated, the IC50 values are reported as an average of at least 2 runs. Where only 1 run is used, this is indicated by the annotation “n=1.”
# T1 sequence (P13569 whole entry): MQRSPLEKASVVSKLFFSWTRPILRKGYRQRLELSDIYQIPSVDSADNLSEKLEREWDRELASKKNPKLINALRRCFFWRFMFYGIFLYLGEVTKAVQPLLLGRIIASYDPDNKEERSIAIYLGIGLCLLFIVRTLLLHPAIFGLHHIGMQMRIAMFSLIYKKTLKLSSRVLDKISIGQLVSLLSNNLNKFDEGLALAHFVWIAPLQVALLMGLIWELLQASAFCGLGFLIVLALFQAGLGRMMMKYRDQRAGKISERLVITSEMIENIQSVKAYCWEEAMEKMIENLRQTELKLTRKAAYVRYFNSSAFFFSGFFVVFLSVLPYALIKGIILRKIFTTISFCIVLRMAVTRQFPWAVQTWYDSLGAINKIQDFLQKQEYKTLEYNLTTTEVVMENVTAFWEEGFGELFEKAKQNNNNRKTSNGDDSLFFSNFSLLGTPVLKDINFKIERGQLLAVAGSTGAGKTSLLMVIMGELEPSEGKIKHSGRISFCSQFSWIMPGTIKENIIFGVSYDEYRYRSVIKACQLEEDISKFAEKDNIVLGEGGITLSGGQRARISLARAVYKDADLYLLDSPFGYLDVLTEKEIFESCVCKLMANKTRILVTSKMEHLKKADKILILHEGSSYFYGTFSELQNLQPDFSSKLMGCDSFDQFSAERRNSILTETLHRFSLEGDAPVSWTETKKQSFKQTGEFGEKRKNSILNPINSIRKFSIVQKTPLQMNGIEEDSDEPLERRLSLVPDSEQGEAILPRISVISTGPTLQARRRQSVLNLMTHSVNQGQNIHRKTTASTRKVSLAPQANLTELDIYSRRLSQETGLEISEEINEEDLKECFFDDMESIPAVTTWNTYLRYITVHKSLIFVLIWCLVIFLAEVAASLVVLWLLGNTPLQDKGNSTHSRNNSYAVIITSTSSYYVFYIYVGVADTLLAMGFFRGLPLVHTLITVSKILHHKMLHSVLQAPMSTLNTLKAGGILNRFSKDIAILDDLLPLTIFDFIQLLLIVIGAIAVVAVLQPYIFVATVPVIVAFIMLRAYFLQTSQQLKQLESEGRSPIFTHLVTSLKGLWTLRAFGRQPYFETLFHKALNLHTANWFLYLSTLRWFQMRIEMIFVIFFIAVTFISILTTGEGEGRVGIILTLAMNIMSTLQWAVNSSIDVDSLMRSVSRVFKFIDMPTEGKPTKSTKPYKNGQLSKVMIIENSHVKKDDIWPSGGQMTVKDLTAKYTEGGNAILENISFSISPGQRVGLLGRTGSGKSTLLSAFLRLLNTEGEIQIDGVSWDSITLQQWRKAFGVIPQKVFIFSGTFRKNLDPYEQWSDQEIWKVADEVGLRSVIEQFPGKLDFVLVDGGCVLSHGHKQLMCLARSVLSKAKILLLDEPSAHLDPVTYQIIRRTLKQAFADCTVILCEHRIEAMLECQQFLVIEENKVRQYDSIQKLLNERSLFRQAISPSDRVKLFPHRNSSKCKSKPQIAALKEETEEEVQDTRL
row,Structure (SMILES),IC50
1,"Oc1c(Cl)cc(-c2ccc(N(Cc3ccccc3)Cc3ccccc3)nn2)cc1Cl [Compound 133, 2,6-dichloro-4-(6-(dibenzylamino)pyridazin-3-yl)phenol]",0.38 µM
2,"CN(Cc1ccccc1)c1ccc(-c2cc(Cl)c(O)c(Cl)c2)nn1 [Compound 118, 4-(6-(benzyl(methyl)amino)pyridazin-3-yl)-2,6-dichlorophenol]",0.06 µM
3,"CCCN(Cc1ccccc1)c1ccc(-c2cc(Cl)c(O)c(Cl)c2)nn1 [Compound 126, 4-(6-(benzyl(propyl)amino)pyridazin-3-yl)-2,6-dichlorophenol]",0.02 µM
4,"Oc1c(Cl)cc(-c2ccc(OCCc3cccs3)nn2)cc1Cl [Compound 102, 2,6-dichloro-4-(6-(2-(thiophen-2-yl)ethoxy)pyridazin-3-yl)phenol]",6.84 µM
5,"Oc1c(Cl)cc(-c2ccc(N3CCc4ccccc4C3)nn2)cc1Cl [Compound 122, 2,6-dichloro-4-(6-(3,4-dihydroisoquinolin-2(1H)-yl)pyridazin-3-yl)phenol]",0.15 µM
6,"CN(C)CCCOc1ccc(CN2CCC(COc3ccc(-c4cc(Cl)c(O)c(Cl)c4)nn3)(c3ccccc3)CC2)cc1 [Compound 107, 2,6-dichloro-4-(6-((1-(4-(3-(dimethylamino)propoxy)benzyl)-4-phenylpiperidin-4-yl)methoxy)pyridazin-3-yl)phenol]",2.85 µM
7,"Oc1c(Cl)cc(-c2ccc(NCc3ccc(Cl)c(Cl)c3)nn2)cc1Cl [Compound 137, 2,6-dichloro-4-(6-(3,4-dichlorobenzylamino)pyridazin-3-yl)phenol]",6 µM
8,"Oc1c(Br)cc(-c2ccc(OCc3cccc(Br)c3)nn2)cc1Br [Compound 91, 2,6-dibromo-4-(6-(3-bromobenzyloxy)pyridazin-3-yl)phenol]",26.1 µM
9,"CN(Cc1cccnc1)c1ccc(-c2cc(Cl)c(O)c(Cl)c2)nn1 [Compound 124, 2,6-dichloro-4-(6-(methyl(pyridin-3-ylmethyl)amino)pyridazin-3-yl)phenol]",1.65 µM
10,"OCCN(Cc1ccccn1)c1ccc(-c2cc(Cl)c(O)c(Cl)c2)nn1 [Compound 113, 2,6-dichloro-4-(6-((2-hydroxyethyl)(pyridin-2-ylmethyl)amino)pyridazin-3-yl)phenol]",17.6 µM
11,"CN(Cc1ccc2ncccc2c1)c1ccc(-c2cc(Cl)c(O)c(Cl)c2)nn1 [Compound 132, 2,6-dichloro-4-(6-(methyl(quinolin-6-ylmethyl)amino)pyridazin-3-yl)phenol]",6.69 µM
12,"COc1ccc(CN(CCO)c2ccc(-c3cc(Cl)c(O)c(Cl)c3)nn2)cc1OC [Compound 134, 2,6-dichloro-4-(6-((3,4-dimethoxybenzyl)(2-hydroxyethyl)amino)pyridazin-3-yl)phenol]",6.9 µM
13,"OCCN(Cc1ccc(F)cc1)c1ccc(-c2cc(Cl)c(O)c(Cl)c2)nn1 [Compound 111, 2,6-dichloro-4-(6-((4-fluorobenzyl)(2-hydroxyethyl)amino)pyridazin-3-yl)phenol]",0.37 µM
14,"CN(Cc1ccc(-c2ccncc2)cc1)c1ccc(-c2cc(Cl)c(O)c(Cl)c2)nn1 [Compound 125, 2,6-dichloro-4-(6-(methyl(4-(pyridin-4-yl)benzyl)amino)pyridazin-3-yl)phenol]",2.05 µM
15,"Oc1c(Br)cc(-c2ccc(OCCc3cccc4ccccc34)nn2)cc1Br [Compound 100, 2,6-dibromo-4-(6-(2-(naphthalen-1-yl)ethoxy)pyridazin-3-yl)phenol]",25.3 µM
16,"OCCN(Cc1cccnc1)c1ccc(-c2cc(Cl)c(O)c(Cl)c2)nn1 [Compound 109, 2,6-dichloro-4-(6-((2-hydroxyethyl)(pyridin-3-ylmethyl)amino)pyridazin-3-yl)phenol]",4.72 µM
17,"Oc1c(Cl)cc(-c2ccc(N3CCN(c4cccc(F)c4)CC3)nn2)cc1Cl [Compound 135, 2,6-dichloro-4-(6-(4-(3-fluorophenyl)piperazin-1-yl)pyridazin-3-yl)phenol]",19.6 µM
